First the molecules themselves.
B1: RANTES: CC chemokine, naturally occurring chemokine that can stimulate the CCR5 receptor (protein, UniProt P13501 24-91, looked up)
C-C motif chemokine 5: SPYSSDTTPCCFAYIARPLPRAHIKEYFYTSGKCSNPAVVFVTRKNRQVCANPEKKWVREYINSLEMS

A word on the IC50: it is the concentration that gives 50% inhibition. A low value points to inhibition by little substance. Usually melting point stands for the temperature of the solid-liquid transition.

Some results are limits rather than exact numbers.

T1 sequence (P51681 whole entry): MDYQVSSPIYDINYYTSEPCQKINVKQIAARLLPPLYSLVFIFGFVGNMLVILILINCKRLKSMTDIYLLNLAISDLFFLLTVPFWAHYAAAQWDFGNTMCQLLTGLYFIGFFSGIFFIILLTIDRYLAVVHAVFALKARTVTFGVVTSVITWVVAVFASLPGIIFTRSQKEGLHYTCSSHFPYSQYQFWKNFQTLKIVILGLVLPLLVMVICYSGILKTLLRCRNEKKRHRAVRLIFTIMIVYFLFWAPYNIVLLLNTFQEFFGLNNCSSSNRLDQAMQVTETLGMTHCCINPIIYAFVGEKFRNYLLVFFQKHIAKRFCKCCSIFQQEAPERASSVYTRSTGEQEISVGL

One series has as its target T1, Human CCR5 receptor (Homo sapiens, UniProt P51681).
T1 construct: expressed in transfected cells
Kind of series: Human CCR5 receptor-ligand binding assay. The conditions noted are these: CHO-Gα16-hCCR5 cells, 125I RANTES binding. An excerpt: Human CCR5 Receptor-Ligand Binding Assay Protocol
Human CCR5 receptor (Genebank ID: 29169292) was cloned into mammalian expression vector, pTarget (Promega). The construct was transfected into CHO-Gα16 cells by using Fugene Reagent (Roche). Clones were selected under antibiotic pressure (G418 and Hygromycin) and sorted 4 times with a fluorescence activates cell sorter and a monoclonal antibody specific for CCR5 receptor (BD Biosciences Pharmigen, Mab 2D7, Cat. No. 555993). The clone with highest expression (100,000 copies per cell) was chosen for the binding assays.
Adherent cells in […] tissue culture flask (˜90% confluent) were harvested using 1 mM EDTA in PBS (phosphate-buffered saline) without Ca^2+ and Mg^2+. Cells were washed twice with PBS containing no Ca^2+ and Mg^2+. CHO-Gα16-hCCR5 cells were then resuspended (1×10^6/mL) in ice cold binding buffer (50 mM HEPES, 1 mM CaCl2, 5 mM MgCl2, 0.5% BSA, 0.05% NaN3, pH 7.24), pH 7.4), supplemented with freshly made 0.5% BSA and 0.05% NaN3.
Eighty μl CHO-Gα16-hCCR5 (1×10^6/mL) cells were added to 96 well plates. All dilutions were made in binding buffer (50 mM HEPES, 1 mM CaCl2, 5 mM MgCl2, 0.5% BSA, 0.05% NaN3, pH 7.24).
The plates were incubated on a cell shaker at RT for 2 h with a final concentration of 0.1 nM ^125I RANTES or ^125I MIP-1α or ^125I MIP-1β. The compound dilutions were made in PBS, 1% BSA. Total reaction volume was 100 μl per well. The test compounds were added to the cells prior to the addition of radioligand.
After incubation, the cells were harvested onto GF/C filter plates using Packard cell harvester. Filters were pretreated with 0.3% PEI/0.2% BSA for 30 min. The filter plate was washed rapidly 5 times with 25 mM HEPES, 500 mM NaCl, 1 mM CaCl2 and 5 mM MgCl2 adjusted to pH 7.1. Plates were dried in oven (70° C.) for 20 min, added with 40 μl scintillation fluid and sealed with Packard TopSeal-A. Packard Top Count was used to measure of the radioactivity for 1 min per well.
Total binding was determined with control wells added with radioisotope and buffer and the non-specific binding was determined using an excess cold RANTES to some of the control wells. Specific binding was determined by subtracting the non-specific form total binding. Results are expressed as the percentage of specific ^125I RANTES binding. IC50 values were determined using varying concentrations of the test ligand in triplicates and the data was analyzed using GraphPad Prism (GraphPad, San Diego, Calif.).
In turn, `CCCCC1CN(C[C@H]2CC[C@H](OCC)CC2)C(=O)CC12CCN(C1(C)CCN(C(=O)c3c(C)ncnc3C)CC1)CC2` (mixture of isomers) [I-1, 5-Butyl-9-[1-(4,6-dimethyl-pyrimidine-5-carbonyl)-4-methyl-piperidin-4-yl]-3-(4-ethoxy-cyclohexylmethyl)-3,9-diaza-spiro[5.5]undecan-2-one] had an IC50 of 30.4 nM. This counts as double-digit nanomolar.
In turn, `CCCCC1CN(CC2CCC(OCC)CC2)C(=O)CC12CCN(C1(C)CCN(C(=O)c3c(C)ncnc3C)CC1)CC2` (single isomer, unassigned) [I-2] returned an IC50 of 26.8 nM.
The same measure, in the same setting: next, `CCCCC1CN(CC2CCC(OCC)CC2)C(=O)CC12CCN(C1(C)CCN(C(=O)c3c(C)ncnc3C)CC1)CC2` (single isomer, unassigned) [I-3]: 32.9 nM; `CCCCC1CN(CC2CCOCC2)C(=O)CC12CCN(C1(C)CCN(C(=O)c3c(C)ncnc3C)CC1)CC2` (centres unmarked) [I-4]: 17.2 nM; `CCCCC1CN(C[C@H]2CC[C@H](OC)CC2)C(=O)CC12CCN(C1(C)CCN(C(=O)c3c(C)ncnc3C)CC1)CC2` (some centres unmarked) [I-5]: 20.8 nM.
In turn, `CCCCC1CN(CC2CCN(S(C)(=O)=O)CC2)C(=O)CC12CCN(C1(C)CCN(C(=O)c3c(C)ncnc3C)CC1)CC2` (centres unmarked) [I-6] returned an IC50 of 16.9 nM. This IC50 and that of the molecule before are within 1.5-fold of each other.
Same read-out and setting: next, `CCCCC1CN(CC2CCN(C(C)=O)CC2)C(=O)CC12CCN(C1(C)CCN(C(=O)c3c(C)ncnc3C)CC1)CC2` (centres unmarked) [I-7]: 51.7 nM.
The same measure, in the same setting: next, `CCCCC1CN(CC2CCN(C(=O)OC)CC2)C(=O)CC12CCN(C1(C)CCN(C(=O)c3c(C)ncnc3C)CC1)CC2` (centres unmarked) [I-8, 4-{1-Butyl-9-[1-(4,6-dimethyl-pyrimidine-5-carbonyl)-4-methyl-piperidin-4-yl]-4-oxo-3,9-diaza-spiro[5.5]undec-3-ylmethyl}-piperidine-1-carboxylic acid methyl ester]: 24.4 nM.
With `CCCCC1CN(C[C@H]2CC[C@@H](OCC)CC2)C(=O)CC12CCN(C1(C)CCN(C(=O)c3c(C)ncnc3C)CC1)CC2` (some centres unmarked) [I-9], the 50% inhibitory concentration (IC50) turned out to be 32 nM.
With `CCCCC1CN(C[C@@H]2CCOC2)C(=O)CC12CCN(C1(C)CCN(C(=O)c3c(C)ccnc3C)CC1)CC2` (some centres unmarked) [I-10], the IC50 turned out to be 24.9 nM.
The molecule `CCCCC1CN(CC2CCCCO2)C(=O)CC12CCN(C1(C)CCN(C(=O)c3c(C)ncnc3C)CC1)CC2` (centres unmarked) [I-11] yielded an IC50 of 24.6 nM.
Same read-out and setting: next, `CCCCC1CN(CC2CCOCC2)C(=O)CC12CCN(C1(C)CCN(C(=O)c3c(C)ccnc3C)CC1)CC2` (centres unmarked) [I-12]: 13.7 nM.
Same read-out and setting: next, `CCCCC1CN(CC2CCOCC2)C(=O)CC12CCN(C1(C)CCN(C(=O)c3c(C)cc(C#N)nc3C)CC1)CC2` (centres unmarked) [I-13]: 19.7 nM.
Molecule `CCCCC1CN(C[C@H]2CCOC2)C(=O)CC12CCN(C1(C)CCN(C(=O)c3c(C)ccnc3C)CC1)CC2` (stereo partly drawn) [I-14, 5-Butyl-9-[1-(2,4-dimethyl-pyridine-3-carbonyl)-4-methyl-piperidin-4-yl]-3-[(R)-1-(tetrahydro-furan-3-yl)methyl]-3,9-diaza-spiro[5.5]undecan-2-one] registered a concentration for half-maximal inhibition (IC50) of 17.7 nM.
The same measure, in the same setting: next, `CCCCC1CN(CC2CCC(O)CC2)C(=O)CC12CCN(C1(C)CCN(C(=O)c3c(C)ccnc3C)CC1)CC2` (centres unmarked) [I-15, 5-Butyl-9-[1-(2,4-dimethyl-pyridine-3-carbonyl)-4-methyl-piperidin-4-yl]-3-(4-hydroxy-cyclohexylmethyl)-3,9-diaza-spiro[5.5]undecan-2-one]: 30.5 nM.

A further series concerns CCR5-mediated fusion of Hela-R5 cells with CEM-NKr-CCR5-Luc cells. As to the kind of experiment: CCR5-mediated cell-cell fusion (CCF) assay. Type of series: cell-based. The conditions noted are these: luciferase readout, 24 hrs co-culture. As for the experimental part: CCF assay was performed as described before (C. Ji, J. Zhang, N. Cammack and S. Sankuratri, J. Biomol. Screen. 2006 11(6):652-663). Hela-R5 cells (express gp160 from R5-tropic virus and HIV-1 Tat) were plated in 384 well white culture plates (BD Bioscience, Palo Alto, Calif.) at 7.5×10^3 cells per well in phenol red-free Dulbecco's Modified Eagle Medium (DMEM) supplemented with 10% FBS, 1× Pen-Strep, 300 μg/mL G418, 100 μg/mL hygromycin, and 1 μg/mL Doxycycline (Dox) (BD Bioscience, Palo Alto, Calif.), using Multimek (Beckman, Fullerton, Calif.) and incubated at 37° C. overnight to induce the expression of gp160. Ten μL diluted compounds in medium containing 5% DMSO were added to the cells, followed by the addition of CEM-NKr-CCR5-Luc (obtained from NIH AIDS Research & Reference Reagents Program) that expresses CD4 and CCR5 and carries a HIV-2 long terminal repeat (LTR)-driven luciferase reporter gene at 1.5×10^4 cells/15 μL/well and incubated for 24 hrs. At the end of co-culture, 15 μL of Steady-Glo luciferase substrate was added into each well, and the cultures were sealed and gently shaken for 45 min. The luciferase activity were measured for 10 sec per well as luminescence by using 16-channel TopCount NXT (PerkinElmer, Shelton, Conn.) with 10 min dark adaptation and the readout is count per second (CPS). […]
In turn, `CCCCC1CN(C[C@H]2CC[C@H](OCC)CC2)C(=O)CC12CCN(C1(C)CCN(C(=O)c3c(C)ncnc3C)CC1)CC2` (mixture of isomers) [I-1, 5-Butyl-9-[1-(4,6-dimethyl-pyrimidine-5-carbonyl)-4-methyl-piperidin-4-yl]-3-(4-ethoxy-cyclohexylmethyl)-3,9-diaza-spiro[5.5]undecan-2-one] came in with an IC50 of less than 2.5 nM.

Tested on in the next series: not given
Experiment: not given
Conditions: not given
For the molecule `CCCCC1CN(CC2CCOCC2)C(=O)CC12CCN(C1(C)CCN(C(=O)c3c(C)ncnc3C)CC1)CC2` (centres unmarked) [I-4], the melting point was in the range of 92.8 to 100.1 °C.

The next series deals with HIV.
Experiment: not given
As to conditions: cited from earlier work.
With B1, the “block of HIV entry into the cells” value was “block HIV entry into the cells”.

Another series relates to collagen induced arthritis.
Experiment: not given
The conditions noted are these: collagen-induced arthritis model; cited from earlier work.
`Cc1ccc(-c2ccc3c(c2)C=C(C(=O)Nc2ccc(C[N+](C)(C)C4CCOCC4)cc2)CCC3)cc1.[Cl-]` [TAK-779]: the “incidence and severity of arthritis” value is “reduce both the incidence and severity of arthritis”; the “infiltration of inflammatory CCR5+ T-cells into the joint” value is “inhibited”.

These data come from patent publication US20090281133A1, “Heterocyclic antiviral compounds” (Roche Palo Alto LLC, priority 2008, published 2009).
